Results taken from patent US20260022334A1, “COMPOSITION, METHOD, AND APPLICATION THEREOF FOR IMPROVING THE QUALITY OF IN VITRO MATURATION OF OOCYTES AND PREGNANCY RATE OF EMBRYOS AFTER IN VITRO FERTILIZATION” (CHINA AGRICULTURAL UNIVERSITY, priority 2024, published 2026).
Marks after values point to notes of the source that are not given here.

What was measured:
recipient ewes = assay: Ovine embryo transfer and pregnancy assessment; assay type: in vivo, sheep; conditions: for Pregnancy rate (%): 45 d after embryo transfer; for Number of pregnancies: B-ultrasonography 45 d after embryo transfer
Description: (§1) • Control group: a routine in vitro maturation group. • Treatment group 1: a VitC (100 μg/mL)—only administration group. • Treatment group 2: an L-carnitine (1 mg/mL)—only administration group. • Treatment group 3: a THPO (200 ng/mL)—only administration group. • Treatment group 4: a VitC (50 μg/mL) and L-carnitine (500 μg/mL) combined administration group. • Treatment group 5: a VitC (50 μg/mL) and THPO (100 ng/ml) combined administration group. • Treatment group 6: an L-carnitine (500 μg/mL) and THPO (100 ng/ml) combined administration group. • Treatment group 7: a VitC (33.3 μg/mL), L-carnitine (333.3 μg/mL), and THPO (66.7 ng/mL) combined administration group.
Transferrable embryo were selected and one blastocyst was transferred into recipient ewes using a laparoscopic procedure. Prior to embryo transfer, the ewes were fasted for at least 20 h. The embryos were transplanted into recipients with an assistant of endoscopic apparatus. The conception was detected at 45 d after embryo transfer by using B-ultrasonography and the embryo transfer pregnancy rate was calculated using the formula: […]

ovine blastocysts = assay: Total number of blastocyst cells (DAPI staining) after in vitro maturation of ovine oocytes; assay type: cell-based, sheep; conditions: ovine 7d blastocysts, FIG. 3
Text: FIG. 3 Statistical analysis of the total number of blastocyst cells after different treatments of sheep oocyte in vitro maturation. Among them, the control group is a routine in vitro maturation group, and treatment groups 1-7 are: VitC alone group, L-carnitine alone group, THPO alone group, VitC and L-carnitine combined administration group, VitC and THPO combined administration group, L-carnitine and THPO combined administration group, VitC, L-carnitine, and THPO combined administration group. The total number of blastocyst cells were obtained by counting cells after DAPI immunofluorescence staining.
as §1
The 7d blastocysts were collected, washed 3 times with PBS containing 1 mg/ml PVA (PBS-PVA), and stained with DAPI, and the total blastocyst cell number was then determined. Specifically, the zona pellucida was removed with Tyrode's medium, and the blastocysts were then fixed in PBS containing 4% polyformaldehyde for 30 min and permeabilized using PBS containing 0.5% TritonX-100 for 20 min at room temperature. The nuclei of the blastocysts were stained with 1 μg/mL DAPI, incubated for 5 min in the dark, and then mounted onto slides. DAPI cells were observed and counted under a fluorescence microscope.

bovine oocytes (COCs) = assay: In vitro maturation of bovine oocytes, in vitro fertilization and embryo culture: embryo development rate; assay type: cell-based; conditions: for D8 blastocyst rate (%): 8 d postinsemination, number of blastocysts/number of oocytes; for effect on 48-h cleavage rate compared with the control group / effect on blastocyst development efficiency compared with the control group: in words; for 48-h cleavage rate (%): number of two-cell embryos/number of oocytes
Description: (§2) • Control group: a routine in vitro maturation group; • Treatment group 1: a VitC (100 μg/mL)—only administration group; • Treatment group 2: an L-carnitine (1 mg/mL)—only administration group; • Treatment group 3: a THPO (200 ng/mL)—only administration group; • Treatment group 4: a VitC (50 μg/mL) and L-carnitine (500 μg/mL) combined administration group; • Treatment group 5: a VitC (50 μg/mL) and THPO (100 ng/ml) combined administration group; • Treatment group 6: an L-carnitine (500 μg/mL) and THPO (100 ng/mL) combined administration group; • Treatment group 7: a VitC (33.3 μg/mL), L-carnitine (333.3 μg/mL), and THPO (66.7 ng/mL) combined administration group.
(§3) The control group was a basal in vitro maturation medium, and the treatment groups (1-7) were prepared by adding different components or combined components to the basal maturation medium.
Bovine ovaries were collected from a local slaughterhouse (Dachang Hui Autonomous County, Hebei Province, China) and transported to the laboratory within two hours in saline solution containing penicillin and streptomycin. In the laboratory, bovine COCs were aspirated from follicles with a diameter of 2-8 mm to M199-HEPES containing 20 μg/mL heparin sodium, 44 μg/mL sodium pyruvate, 70 μg/mL penicillin and 50 μg/mL streptomycin. The aspirated follicular fluid was placed in 50 ml conical tubes and maintained for a period for sedimentation. The upper portion of the liquid was removed and the remaining portion was then transferred to wash buffer. COCs with a homogenous, evenly granulated ooplasm surrounded by at least three layers of compact cumulus cells were selected under a stereomicroscope for experiments. COCs were washed three times in BO-IVM medium and incubated for 22 h at 38.5° C. in a humidified atmosphere under 5% CO2 in groups of 50 containing 500 μL BO-IVM medium in four-well dishes covered with mineral oil.
After 22 h of IVM, 20 COCs were transferred to 100 μL BO-IVF medium covered with mineral oil in Petri dish (60×15 mm). Frozen-thawed sperm was purified using BO-SemenPrep. Spermatozoa were selected by Percoll method and the final concentration was adjusted to 1×10^6 in each drop. They were co-incubated in BO-IVF medium with humidified 5% CO2 in air at 38.5° C. for 18 h. Thereafter, the presumptive zygotes were transferred to BO-IVC medium in four-well dishes covered with mineral oil, and incubated with humidified 5% CO2 in air at 38.5° C. for 8 days. The cleavage rate was determined at 48 h and the blastocyst rate was estimated at 8d postinsemination.

[1] = tested on: ovine oocytes (cumulus-oocyte complexes); assay: In vitro maturation of ovine oocytes, in vitro fertilization and embryo culture: embryo development rate; assay type: cell-based, sheep; conditions: mean ± standard error; for Cleavage rate (%): 48 h after IVF, modulators added to in vitro maturation medium; for D7 blastocyst rate (%): day 7 of culture
Description: Ovine ovaries were collected in a slaughterhouse, placed in normal saline at 35° C., and transported to the laboratory within 2 h. The ovaries were washed three times with normal saline, and follicles were punctured using a 20 G needle containing 5 mL of oocyte collection medium to release cumulus-oocyte complexes. The COCs with uniform cytoplasm and at least 3 layers of cumulus cells were collected Under a stereomicroscope.
as §1, §3
The collected ovine oocytes were washed three times with washing medium, then washed 3 times with the basal in vitro oocyte maturation medium pre-equilibrated for 3 h in advance, transferred to the in vitro maturation culture mediums of the control and experimental groups, and incubated in a 5% CO2, 38.5° C. incubator with saturated humidity for 22-24 h. Four-well plates were used for culture, and each well contained 600 μL of in vitro maturation culture medium and 30-35 ovine cumulus-oocyte complexes, and was covered with 300 μL of mineral oil. In vitro maturation of ovine oocytes was performed according to different groups.
For the control group, the basal in vitro oocyte maturation medium was used. The basal in vitro oocyte maturation medium was prepared as follows: TCM199+10% estrus ovine serum+1 μg/mL follicle-stimulating hormone+1 μg/mL luteinizing hormone+1 μg/mL β-estradiol+12 μg/mL DL-cysteine+100 μg/mL streptomycin+100 IU/mL penicillin.
After in vitro maturation, the matured oocytes were subjected to in vitro fertilization (IVF). Briefly, COCs were washed three times in synthetic oviductal fluid (SOF) medium with 0.2% hyaluronidase to remove cumulus cells and transferred into the IVF medium, which consisted of synthetic oviduct fluid (SOF) medium containing 2% estrus sheep serum (ESS), 3 mg/mL BSA, 6 IU/mL heparin sodium and 50 IU/mL gentamicin. For IVF, frozen semen was removed from the liquid nitrogen and thawed in a water bath at 39° C. for 1 min. Then, the sperm diluted with IVF medium and swimming up for 30 min at 38.5° C. in a humidified atmosphere at 5% CO2. The upper layer of semen was transferred into a 1.5 mL tube and then centrifuge for 5 min at 2000 rpm. The spermatozoa were carefully collected from the bottom of the centrifuge tube and added into each IVF medium with a final concentration of approximately 1×10^6 sperm/mL. Then, the oocyte and sperm were co-incubated for 20 h at 38.5° C. with 5% CO2 in a humidified atmosphere. All reagents were purchased from Sigma-Aldrich.
After IVF, presumptive zygotes were washed three times in IVC medium and then transferred to SOF medium supplemented with 1% BME-essential amino acids, 1% MEM-nonessential amino acids, 1 mM glutamine and 3 mg/mL BSA and cultured at 38.6° C. in a humidified environment with an 88% N2, 5% CO2, 7% O2. The cleavage rate and blastocyst rate were recorded at 48 h and 6-7 d after IVF. After 48 h of culture, the cleavage rate was calculated. The culture was continued until day 7, and the blastocyst rate was calculated.

bovine recipients = assay: Bovine embryo transfer and pregnancy rate assessment; assay type: in vivo; conditions: for Number of pregnancies: B-mode ultrasonography days 45-50; for Pregnancy rate (%): days 45-50, pregnant/recipient female animals
Description: as §2
The bovine recipients were restrained and anesthetized according to requirement of sartificial insemination. After the vulva was cleaned and disinfected, the cervix was opened and the fallopian tubes were flushed. The embryo transfer catheter was inserted deep into one uterine horn using the rectal palpation method. The plunger of a syringe connected to embryos transfer catheter was pushed to inject the embryos that had developed to the blastocyst stage after in vitro fertilization, and the embryo transfer catheter was then withdrawn. The pregnancy status was assessed by B-mode ultrasonography on days 45-50 of pregnancy, and the pregnancy rate was calculated.

Compound | Pregnancy rate (%) (recipient ewes) | Number of pregnancies (recipient ewes) | total number of blastocyst cells (ovine blastocysts) | D8 blastocyst rate (%) (bovine oocytes (COCs)) | effect on 48-h cleavage rate compared with the control group (bovine oocytes (COCs)) | effect on blastocyst development efficiency compared with the control group (bovine oocytes (COCs)) | 48-h cleavage rate (%) (bovine oocytes (COCs)) | Cleavage rate (%) [1] | D7 blastocyst rate (%) [1] | Number of pregnancies (bovine recipients) | Pregnancy rate (%) (bovine recipients) | effect on pregnancy rate after embryo transfer compared with the control group (bovine recipients; in words)
O=C1O[C@H]([C@@H](O)CO)C(O)=C1O [Treatment group 1, vitamin C] | 50.0^a % | 25 | 80.6±3.2 | 33.1 ± 1.3^b % | did not affect | enhanced | 68.7 ± 3.1% | 75.64 ± 2.83^a % | 38.79 ± 1.97^b % | 11 | 42.3%^a | –
C[N+](C)(C)C[C@H](O)CC(=O)[O-] [Treatment group 2, L-carnitine] | 54.2^a % | 26 | 82.6±2.7 | 32.4 ± 0.8^b % | did not affect | enhanced | 69.5 ± 4.3% | 74.32 ± 2.31^a % | 37.61 ± 1.85^b % | 12 | 46.2%^b | can improve
Thrombopoietin [Treatment group 3] | 53.1^a % | 26 | 79.4±2.3 | 32.2 ± 2.0^b % | – | – | 67.4 ± 3.8% | 75.38 ± 2.43^a % | 38.01 ± 1.50^b % | 11 | 42.3%^a | –
